Type in all cases: in vivo
A short description of experiment [1]: Inhibition of tetrabenazine induced depression of exploratory behavior in mice. The conditions noted are these: for Number Responded/Number Treated: intraperitoneally or orally, 1 h before tetrabenazine 30 mg/kg; for ED50: Mus musculus, calculated by method of Finney, dose column in mg/kg, read-out: ED50 (95% C.L.). As for the experimental part:
Varying doses of the test compounds are administered intraperitoneally or orally to 5 mice one hour before the administration of tetrabenazine hexamate at an intraperitoneal dose of 30 mg/kg which is known to depress markedly the exploratory behavior of normal mice. Thirty minutes later the mice are tested for their exploratoy behavior. Individual mice are placed in the center of a horizontal disc. Inhibition of the depression induced by tetrabenazine is considered present if the mice perform one or more of the following actions within 10 seconds after being placed on the disc:
(1) Animals move to the edge of the disc and pear over the side.
(2) Animals move 180° in place.
(3) Animals display a head movement of 90° immediately followed by a head movement in the opposite direction of at least 45°.
Administration of the test compounds to additional groups of 5 mice is repeated, the numbers of individual animals showing an anti-depressant response (normal exploratory behavior) is recorded and the results are analyzed by the following scheme (statistically standardized; significant P = less than 0.05).
The results from several dose levels (acceptance in at least two sequential test procedures) are then used to establish the Range of Active Doses.

Experiment [2] in a line: Prevention of reserpine-induced hypothermia in rats. As to conditions: for ED50: Rattus norvegicus, oral, dose column in mg/kg, read-out: ED50 (95% C.L.). As for the experimental part: Groups of 5 rats were treated orally with graded doses of the test compounds. One hour later the animals were treated with reserpine (solubilized in propylene glycol and citric acid) at a dose of 5 mg/kg intraperitoneally. Rectal temperatures were measured using a YSI Telethermometer. Temperatures were recorded just prior to treatment, one hour later just prior to reserpine administration and at hourly intervals following reserpine administration for 5 hours. […]

Experiment [3] is described as follows: Enhancement of yohimbine lethality in mice. As to conditions: 25 mg/kg intraperitoneal, yohimbine 34 mg/kg.
Description: The test compounds were administered intraperitoneally, at various dose levels, to groups of 10 mice. One hour later all mice received yohimbine at a dose (34 mg/kg) estimated to have a lethal effect in 4% of the mice. Deaths were recorded 18 to 24 hours later.
[4] abbreviates: 5 mg/kg oral, 2 hours after reserpine.
Where [5] appears, read: 5 mg/kg oral, 3 hours after reserpine.
Where [6] appears, read: 5 mg/kg oral, 4 hours after reserpine.
Setting [7] is: 5 mg/kg oral, 5 hours after reserpine.
Setting [8] is: 10 mg/kg oral, 2 hours after reserpine.
Where [9] appears, read: 10 mg/kg oral, 3 hours after reserpine.
Setting [10] is: 10 mg/kg oral, 4 hours after reserpine.
[11] abbreviates: 10 mg/kg oral, 5 hours after reserpine.
The mark [12] stands for this setting: 20 mg/kg oral, 2 hours after reserpine.
The mark [13] stands for this setting: 20 mg/kg oral, 3 hours after reserpine.
The mark [14] stands for this setting: 20 mg/kg oral, 4 hours after reserpine.
[15] abbreviates: 20 mg/kg oral, 5 hours after reserpine.

Here are results for 5 compounds from patent US4087421A, “Substituted benzodiazepines and method of use” (American Cyanamid Company, priority 1977, dated 1978).

Turning to `CN1c2ccccc2N=C(N2CCN(CCO)CC2)c2cscc21` [4-(4-Methyl-4H-thieno[3,4-b][1,5]-benzodiazepin-10-yl)-1-piperazineethanol], the “Number Responded/Number Treated” value in experiment [1] (1.56 mg/kg) was 5/30; in experiment [1] (3.13 mg/kg) it was 10/30; in experiment [1] (6.25 mg/kg), 9/20; in experiment [1] (12.5 mg/kg), 11/20; in experiment [1] (25.0 mg/kg), 10/20. Also, the ED50 in experiment [1] is 13 mg/kg; in experiment [2] (2 hours after reserpine), 9.1 mg/kg; in experiment [2] (3 hours after reserpine), 10.6 mg/kg; in experiment [2] (4 hours after reserpine), 10.6 mg/kg; in experiment [2] (5 hours after reserpine), 14.6 mg/kg. Besides, the “Percent of Animals Showing > Two Standard Deviations in Rectal Temperature Over Control Means” value in experiment [2] (setting [4]) is 0%; in experiment [2] (setting [5]), 0%; in experiment [2] (setting [6]) it was 0%; in experiment [2] (setting [7]), 0%; in experiment [2] (setting [8]), 80%; in experiment [2] (setting [9]) it was 80%. Besides, the “Percent of Animals Showing > Two Standard Deviations in Rectal Temperature Over Control Means” value is 80% in experiment [2] (setting [10]); 80% in experiment [2] (setting [11]); 100% in experiment [2] (setting [12]); 80% in experiment [2] (setting [13]); 80% in experiment [2] (setting [14]); 40% in experiment [2] (setting [15]).
Turning to `CCN1c2ccccc2N=C(N2CCN(C)CC2)c2cscc21` [4-Ethyl-10-(4-methyl-1-piperazinyl)-4H-thieno[3,4-b][1,5]benzodiazepine], the “Number Responded/Number Treated” value in experiment [1] (3.13 mg/kg) is listed as 3/15; in experiment [1] (6.25 mg/kg), 10/30; in experiment [1] (12.5 mg/kg), 9/25; in experiment [1] (25.0 mg/kg), 9/20. Further, the 50% effective dose (ED50) was ~37 mg/kg in experiment [1]; 11.6 mg/kg in experiment [2] (2 hours after reserpine); 8.7 mg/kg in experiment [2] (3 hours after reserpine); 9.7 mg/kg in experiment [2] (4 hours after reserpine); 16.9 mg/kg in experiment [2] (5 hours after reserpine). Further, the “Percent of Animals Showing > Two Standard Deviations in Rectal Temperature Over Control Means” value in experiment [2] (setting [4]) came to 0%; in experiment [2] (setting [5]), 0%; in experiment [2] (setting [6]), 0%; in experiment [2] (setting [7]) it was 0%; in experiment [2] (setting [8]), 60%; in experiment [2] (setting [9]), 100%. For the same compound, the “Percent of Animals Showing > Two Standard Deviations in Rectal Temperature Over Control Means” value was found to be 60% in experiment [2] (setting [10]); 20% in experiment [2] (setting [11]); 80% in experiment [2] (setting [12]); 80% in experiment [2] (setting [13]); 100% in experiment [2] (setting [14]); 60% in experiment [2] (setting [15]). Moreover, the “Number Dead/Number Treated” value is 7/10 in experiment [3] (18 hours) and 8/10 in experiment [3] (24 hours).
Regarding `CN1c2ccccc2N=C(N2CCNCC2)c2cscc21` [4-Methyl-10-(1-piperazinyl)-4H-thieno[3,4-b][1,5]benzodiazepine], the “Number Responded/Number Treated” value in experiment [1] (1.56 mg/kg) is 5/30; in experiment [1] (3.13 mg/kg), 10/30; in experiment [1] (6.25 mg/kg), 9/20; in experiment [1] (12.5 mg/kg), 11/20; in experiment [1] (25.0 mg/kg), 10/20. In addition, in experiment [1], the ED50 was 13 mg/kg.
Consider `CCN1CCN(C2=Nc3ccccc3N(C)c3cscc32)CC1` [4-Methyl-10-(4-ethyl-1-piperazinyl)-4H-thieno[3,4-b][1,5]benzodiazepine], for which the “Number Responded/Number Treated” value in experiment [1] (3.13 mg/kg) is given as 3/15; in experiment [1] (6.25 mg/kg), 10/30; in experiment [1] (12.5 mg/kg) it was 12/25; in experiment [1] (25.0 mg/kg), 10/25. The ED50 in experiment [1] is ~35 mg/kg.
Consider `CN(C)CCCN1c2ccccc2CCc2ccccc21` [Imipramine, reference compound], for which the “Number Responded/Number Treated” value was 1/10 in experiment [1] (0.78 mg/kg); 2/10 in experiment [1] (1.56 mg/kg); 4/10 in experiment [1] (3.13 mg/kg); 7/10 in experiment [1] (6.25 mg/kg); 7/10 in experiment [1] (12.5 mg/kg); 9/10 in experiment [1] (25.0 mg/kg). The ED50 was 4.4 mg/kg in experiment [1]; 1.2 mg/kg in experiment [2] (2 hours after reserpine); 2.2 mg/kg in experiment [2] (3 hours after reserpine); 2.2 mg/kg in experiment [2] (4 hours after reserpine); 1.3 mg/kg in experiment [2] (5 hours after reserpine). The “Percent of Animals Showing > Two Standard Deviations in Rectal Temperature Over Control Means” value in experiment [2] (0.20 mg/kg oral, 2 hours after reserpine) is listed as 0%; in experiment [2] (0.20 mg/kg oral, 3 hours after reserpine), 0%; in experiment [2] (0.20 mg/kg oral, 4 hours after reserpine), 0%; in experiment [2] (0.20 mg/kg oral, 5 hours after reserpine) it was 0%; in experiment [2] (0.39 mg/kg oral, 2 hours after reserpine), 0%; in experiment [2] (0.39 mg/kg oral, 3 hours after reserpine) it was 10%. Besides, the “Percent of Animals Showing > Two Standard Deviations in Rectal Temperature Over Control Means” value in experiment [2] (0.39 mg/kg oral, 4 hours after reserpine) turned out to be 0%; in experiment [2] (0.39 mg/kg oral, 5 hours after reserpine), 0%; in experiment [2] (0.78 mg/kg oral, 2 hours after reserpine), 21%; in experiment [2] (0.78 mg/kg oral, 3 hours after reserpine), 0%; in experiment [2] (0.78 mg/kg oral, 4 hours after reserpine), 0%; in experiment [2] (0.78 mg/kg oral, 5 hours after reserpine) it was 7%. The “Percent of Animals Showing > Two Standard Deviations in Rectal Temperature Over Control Means” value in experiment [2] (1.56 mg/kg oral, 2 hours after reserpine) amounted to 40%; in experiment [2] (1.56 mg/kg oral, 3 hours after reserpine) it was 20%; in experiment [2] (1.56 mg/kg oral, 4 hours after reserpine) it was 20%; in experiment [2] (1.56 mg/kg oral, 5 hours after reserpine), 40%; in experiment [2] (3.13 mg/kg oral, 2 hours after reserpine), 100%; in experiment [2] (3.13 mg/kg oral, 3 hours after reserpine), 90%. The “Percent of Animals Showing > Two Standard Deviations in Rectal Temperature Over Control Means” value in experiment [2] (3.13 mg/kg oral, 4 hours after reserpine) is listed as 80%; in experiment [2] (3.13 mg/kg oral, 5 hours after reserpine), 100%; in experiment [2] (6.25 mg/kg oral, 2 hours after reserpine) it was 100%; in experiment [2] (6.25 mg/kg oral, 3 hours after reserpine), 100%; in experiment [2] (6.25 mg/kg oral, 4 hours after reserpine), 100%; in experiment [2] (6.25 mg/kg oral, 5 hours after reserpine), 100%. For the same compound, the “Percent of Animals Showing > Two Standard Deviations in Rectal Temperature Over Control Means” value in experiment [2] (12.5 mg/kg oral, 2 hours after reserpine) came out at 100%; in experiment [2] (12.5 mg/kg oral, 3 hours after reserpine), 80%; in experiment [2] (12.5 mg/kg oral, 4 hours after reserpine), 100%; in experiment [2] (12.5 mg/kg oral, 5 hours after reserpine), 100%.

Broadly, the ED50 is the dose at which the effect has come halfway, by size or by number of responders.
